Data as given in patent US20180169021A1, “RANOLAZINE MULTIPLE COMPRESSED TABLETS” (INTERQUIM, S.A., priority 2015, published 2018).
In brackets after ≈: the same amount, converted by molar mass. Where two headings read alike, the source gives them in different places.

What was measured:
[1] = Dissolution in time of 500 mg ranolazine compressed into tablets, 900 mL aqueous media, paddle 100 rpm (FIG. 1); assay type: physicochemical; conditions: 100% ranolazine tablet
From the text: As shown in the previous table, ranolazine is much more soluble at acidic pH than in neutral or basic pH.

[2] = cited from earlier work
[3] = quoted from WO0166093 A2; cited from earlier work

In the case of `COc1ccccc1OCC(O)CN1CCN(CC(=O)Nc2c(C)cccc2C)CC1` (centres unmarked) [Ranolazine, N-(2,6-dimethylphenyl)-2-(4-(2-hydroxy-3-(2-methoxyphenoxy)propyl)piperazin-1-yl)acetamide], the “Time until all the ranolazine is dissolved” value ([1]; pH 1 (0.1 M HCl)) is reported as “less than 30 minutes”, the Ranolazine dissolved ([1]; pH 6.8, 30 minutes) is reported as “around 63%” and the Extent of dissolution ([1]; pH 6.8, 12 hours) is reported as “not yet fully dissolved”. For the same molecule, the Solubility ([2]; Solution pH 4.81) was 161000 µg/mL (≈ 377 mM), the “USP Solubility Class” value ([2]; Solution pH 4.81) was “Freely Soluble” and the Solubility ([2]; Solution pH 4.89) was 73800 µg/mL (≈ 173 mM). The “USP Solubility Class” value ([2]; Solution pH 4.89) was “Soluble”, the Solubility ([2]; Solution pH 4.90) was 76400 µg/mL (≈ 179 mM) and the “USP Solubility Class” value ([2]; Solution pH 4.90) was “Soluble”. The Solubility ([2]; Solution pH 5.04) was 49400 µg/mL (≈ 116 mM), the “USP Solubility Class” value ([2]; Solution pH 5.04) was “Soluble” and the Solubility ([2]; Solution pH 5.35) was 16700 µg/mL (≈ 39.1 mM). For the same molecule, the “USP Solubility Class” value ([2]; Solution pH 5.35) was “Sparingly Soluble”, the Solubility ([2]; Solution pH 5.82) was 5480 µg/mL (≈ 12.8 mM) and the “USP Solubility Class” value ([2]; Solution pH 5.82) was “Slightly soluble”. For the same molecule, the Solubility ([2]; Solution pH 6.46) was 1630 µg/mL (≈ 3.81 mM), the “USP Solubility Class” value ([2]; Solution pH 6.46) was “Slightly soluble” and the Solubility ([2]; Solution pH 6.73) was 830 µg/mL (≈ 1.94 mM). For the same molecule, the “USP Solubility Class” value ([2]; Solution pH 6.73) was “Very slightly soluble”, the Solubility ([2]; Solution pH 7.08) was 390 µg/mL (≈ 0.912 mM) and the “USP Solubility Class” value ([2]; Solution pH 7.08) was “Very slightly soluble”. The Solubility ([2]; Solution pH 7.59*) was 240 µg/mL (≈ 0.561 mM), the “USP Solubility Class” value ([2]; Solution pH 7.59*) was “Very slightly soluble” and the Solubility ([2]; Solution pH 7.79) was 170 µg/mL (≈ 0.398 mM). The “USP Solubility Class” value ([2]; Solution pH 7.79) was “Very slightly soluble”, the Solubility ([2]; Solution pH 12.66) was 180 µg/mL (≈ 0.421 mM) and the “USP Solubility Class” value ([2]; Solution pH 12.66) was “Very slightly soluble”. For the same molecule, the Solubility ([2]; low pH that occurs in the stomach, quoted from WO0166093 A2) was “relatively high” and the Plasma half-life [3] was “relatively short”.
